Results reported in patent EP2285386B1, “Use of ribose in the treatment of restless legs syndrome” (RiboCor, Inc., priority 2008, dated 2009).
Read-outs that look alike come from different tables or passages of the source.

How the values were obtained:
[1] = test system: two familial males with RLS; assay: Restless Legs Syndrome case study: oral D-ribose at three dosing regimens, symptom diary; type: in vivo, human; conditions: three weeks
Excerpt: We present a report on two familial males with RLS in which the supplementation of D-ribose produced a benefit in lessening the occurrence and severity of their daily symptoms. Both affected male individuals were from a positive family prevalence, three generations carrying the diagnosis of RLS. These males involved the latter two generations, parent and child, respectively. Both men had no underlying medical conditions. Their symptoms of RLS date back for decades and presently have progressed to the moderate to severe discomfort stage, mainly experienced during sedentary periods throughout the day with exacerbation of symptoms during nocturnal sleep.
Both individuals were introduced to D-ribose. To evaluate any potential benefits of D-ribose in RLS, each individual orally consumed D-ribose (five grams per dose) daily at different trial dosing regimens. Each trial dosing regimen lasted for three weeks with a two week interval washout between dosing regimens. The initial regimen involved a single dose of oral D- ribose consumed only at breakfast. The second dosing regimen involved consumption of oral D-ribose at breakfast and lunch. In the last dosing regiment, oral D-ribose was taken with all meals, breakfast, lunch and dinner. A diary pertaining to the documentation and severity of RLS symptoms was compiled.
The two week washout period between stages was designed to observe any return or worsening of their symptoms. […] Following completion of all dosing regimens of oral D-ribose and with the final wash out period, both males elected to re-start oral dosing of D-ribose at 5 grams/doses three times a day.

[2] = human, in vivo, iv, cited from earlier work
[3] = second regimen: oral, five grams at breakfast and lunch

SMILES: O=C[C@H](O)[C@H](O)[C@H](O)CO [D-Ribose]
- energy and fatigue ([1]; initial regimen: oral, five grams single dose at breakfast): general feeling of more energy and less fatigue
- leg twitching events and the urge to move during the day [1, 3]: reduced for one of the subjects and rarely present in the other
- unpleasant sensations during the night [1, 3]: Both still experienced the unpleasant sensations during the night
- D-Ribose levels in the serum ([2]; 60 mg/kg): approximately 25 mg/dl
- half-life of D-Ribose in the serum ([2]; 60 mg/kg): 11 min
- D-Ribose levels in the serum ([2]; 100 mg/kg): approximately 25 mg/dl
- half-life of D-Ribose in the serum ([2]; 100 mg/kg): 16 min
- serum level ([2]; 222.2 mg/kg): ≤ 86 mg/dL
- serum levels [2]: ≤ 60 mg/dL
